Data reported in US8124051B2, “Complex drug delivery composition and method for treating cancer” (priority 2003, dated 2012).

Key:
[1] = tested on: human ovarian carcinoma cells; assay: Cytotoxicity (IC50 dose) of Ant, Ant-BH3 peptide and DOX; format: cell-based; settings: Ovarian carcinoma cell; human ovarian carcinoma cells
Method: By way of example, the effectiveness of a BH3 peptide ([…] SEQ ID NO:1) to increase cell death by inducing the mitochondrial dysfunction leading to necrosis was measured. BH3 peptide was delivered into human ovarian carcinoma cells by the Antennapedia (Ant) internalization sequence (Arg-Gln-Ile-lys-[…] SEQ ID NO:2). Mitochondrial function was assessed by flow cytometry analysis using the lipophilic cationic fluorescent probe 5,5′,6,6′-tetrachloro-1,1′,3,3′-tetraethylbenzimidazolcarbo-cyanine iodide (JC-1). This probe exists as a monomer, and upon excitation at 490 nm, emits light at 527 nm resulting in green fluorescence. At high mitochondrial transmembrane potential, JC-1 forms multimers, known as J-aggregates, and emits light at 590 nm upon excitation at 490 nm resulting in red fluorescence. Therefore, the red/green fluorescence ratio measured by flow cytometry reflects the number of functioning mitochondria. […] The effect of the Ant-BH3 peptide on mitochondrial transmembrane potential was also determined.
Cytotoxicity. The cytotoxicity of drugs were assessed using a modified MTT (3-(4,5-dimethylthiazol-2-yl)-2,5-diphenyltetrazolium bromide) assay (Kunath, et al. (2000) Eur. J. Pharm. Biopharm 49:11-15; Minko, et al. (1998) J. Controlled Rel. 54:223-233; Minko, et al. (1999) J. Controlled Rel. 59:133-148; Minko, et al. (2002) Cancer Chemother. Pharmacol. 50:143-150). […]

[2] = tested on: human ovarian carcinoma cells; assay: Apoptosis and BCL-2 expression after DOX (cell death ELISA, RT-PCR); format: cell-based
Source text: (§1) It has been shown that prolonged exposure or high concentrations of anticancer drugs leads to the development of drug resistance (Minko, et al. (2001) Dis. Manag. Clin. Outcomes 3:48-54; Minko, et al. (1999) J. Controlled Rel. 59:133-148; Pakunlu (2003) Pharm. Res. 20:351-359; Minko, et al. (1999) Pharm. Res. 16:986-996; Minko, et al. (2001) J. Control. Rel. 71:227-237). To analyze antiapoptotic resistance, the degree of apoptosis to doxorubicin (DOX), a traditional, well-established anticancer drug, was determined. The enrichment of cell lysate and media by mono- and oligonucleosomes was measured using a cell death detection ELISA kit. The expression of genes was measured by reverse transcription PCR (RT-PCR) using β2-microglobulin (β2-m) as an internal standard. […] Similar results were obtained after repeated incubation of human ovarian carcinoma cells with low doses of DOX (Minko, et al. (1999) supra; Minko, et al. (1999) supra) and after treatment of mice xenografts of ovarian carcinoma cells with DOX. […] Thus, suppression of this antiapoptotic cellular defense mechanism is desirable.

[3] = tested on: xenografts of ovarian carcinoma cells; assay: DOX treatment of mice xenografts of ovarian carcinoma cells; format: in vivo; settings: up to 25 days of treatment
Source text: as §1

[4] = healthy tissues and tumor; cited from earlier work

With `COc1cccc2c1C(=O)c1c(O)c3c(c(O)c1C2=O)C[C@@](O)(C(=O)CO)C[C@@H]3O[C@H]1C[C@H](N)[C@H](O)[C@H](C)O1` [DOX, doxorubicin] the IC50 [1] was 484 ± 36.4 nM, the cell response ([2]; cells that survived exposure to high DOX concentrations) was “overexpressed the BCL-2 gene and developed resistance to apoptosis” and the cell response ([2]; low DOX concentrations) was “responded to the treatment by apoptosis”. The tumor size [3] was “decreased the tumor size” and the tissue accumulation [4] was “significant amount of free DOX accumulation in healthy tissues”.
